{
  "source": "patent US7728033B2",
  "about": "“Mycophenolate mofetil in diabetic nephropathy” (Clinigene International Private Limited, priority 2003, dated 2010)",
  "key": {"[1]": {"test_system": "patients with type 1 diabetes mellitus and diabetic nephropathy", "settings": "cited from earlier work"}, "[2]": {"test_system": "patients with diabetic nephropathy", "assay": "24-hour urine protein (proteinuria), open-labeled randomized study", "format": "in vivo, human", "design": "Mean 24 h Urine protein, 1 month after treatment at V3 / Result Difference 24 h Urine protein, V3 (1 month) vs baseline V2 / Mean 24 h Urine protein, 3 month after treatment at V4: unit not given here", "description": "In this study, a total of 30 patients were planned of which 18 were randomized and subjected to enter into one of the studies in which the patient groups each received MMF alone, lisinopril alone, or a combination of both MMF and lisinopril.\nThe primary end-point for this study was the proteinuria value obtained from the patients via 24-hour urine protein which was measured using the Calorimetric method Pyrogallol Red/SDS liquid stable single reagent.\n(§1) Evaluation of the effects of MMF or ACE inhibitors alone or in combination on the status of proteinuria in patients with diabetic nephropathy was an open-labeled, randomized study. This study consisted of three arms as shown below. • 1. treatment with MMF alone • 2. treatment with combination of MMF and lisinopril • 3. treatment with lisinopril alone In addition, there were three phases of the study as shown below.\nPhase 2: Treatment Phase (6 months): Every patient who qualified the screening phase was assigned one of the treatment arms. During this phase, patients were monitored closely and efficacy and safety parameters are assessed every month.\n(§2) Study Products and Dosage: • 1. MMF: The dose of MMF given during the study was 500 mg per oral twice a day throughout the study. • 2. Lisinopril: The starting dose of lisinopril given in the study was 5 mg per oral twice a day. In case of hypertensive patients, the dose could be titrated upwards based on investigator's discretion, which in turn was based on the patient's “safety end point”. • 3. MMF+Lisinopril: In the patients who received both the drugs, the dose of MMF was 500 mg per oral twice a day and lisinopril was 5 mg per oral twice a day. In the case of hypertensive patients, the dose of lisinopril could be titrated upwards based on investigator's discretion, which in turn was based on the patient's “safety end point”."}, "[3]": {"test_system": "patients with diabetic nephropathy", "assay": "Estimated GFR (Cockcroft-Gault formula), open-labeled randomized study", "format": "in vivo, human", "description": "A secondary end-point for this study was the GFR value obtained for each patient. This Secondary Endpoint included Estimated GFR, which was calculated using the following formulae: […]\nOnce all data was collected, Glomerular Filtration Rate GFR) was determined by the Cockcroft-Gault formula.\nas §1, §2"}, "[4]": {"test_system": "patients with IgA nephropathy", "settings": "MMF 1-1.5g per day vs Prednisone 30-40 mg per day; followed to 72 weeks; preliminary report; cited from earlier work"}, "Diabetic rats": {"test_system": "Diabetic rats", "settings": "8 months; cited from earlier work"}, "[5]": {"test_system": "patients with lupus nephritis", "settings": "systemic lupus erythomatosis; 0.5 to 1.5 g/d; cited from earlier work"}, "[6]": {"settings": "Benefited patients, lisinopril alone 5 mg twice daily"}, "[7]": {"settings": "Not benefited patients, lisinopril alone 5 mg twice daily"}, "[8]": {"settings": "Benefited patients, MMF alone 500 mg per oral twice a day"}, "[9]": {"settings": "Benefited patients, MMF alone 500 mg twice daily"}, "[10]": {"settings": "Not benefited patients, MMF alone 500 mg per oral twice a day"}, "[11]": {"settings": "Not benefited patients, MMF alone 500 mg twice daily"}},
  "data": [
    {"smiles": "C[C@H](CS)C(=O)N1CCC[C@H]1C(=O)O", "note": "[Captopril]", "values": [
      {"measurement": "progression of renal disease", "setting": "[1]", "value": "prevents or delays the progression of renal disease"}
    ]},
    {"smiles": "NCCCC[C@H](N[C@@H](CCc1ccccc1)C(=O)O)C(=O)N1CCC[C@H]1C(=O)O", "note": "[lisinopril]", "values": [
      {"measurement": "Mean 24 h Urine protein, 1 month after treatment at V3", "setting": "[2]; [6]", "value": 236.66},
      {"measurement": "Mean 24 h Urine protein, 3 month after treatment at V4", "setting": "[2]; [6]", "value": 161.15},
      {"measurement": "Mean 24 h Urine protein, 6 month after treatment at V5", "setting": "[2]; [6]", "value": 248.4},
      {"measurement": "Result Difference 24 h Urine protein, V3 (1 month) vs baseline V2", "setting": "[2]; [6]", "value": "−133.6"},
      {"measurement": "Result Difference 24 h Urine protein, V4 (3 month) vs baseline V2", "setting": "[2]; [6]", "value": "−268.75"},
      {"measurement": "Result Difference 24 h Urine protein, V5 (6 month) vs baseline V2", "setting": "[2]; [6]", "value": "−239.6"},
      {"measurement": "Mean 24 h Urine protein, 1 month after treatment at V3", "setting": "[2]; [7]", "value": 211.25},
      {"measurement": "Mean 24 h Urine protein, 3 month after treatment at V4", "setting": "[2]; [7]", "value": 289.2},
      {"measurement": "Mean 24 h Urine protein, 6 month after treatment at V5", "setting": "[2]; [7]", "value": 626},
      {"measurement": "Result Difference 24 h Urine protein, V3 (1 month) vs baseline V2", "setting": "[2]; [7]", "value": 53.73},
      {"measurement": "Result Difference 24 h Urine protein, V4 (3 month) vs baseline V2", "setting": "[2]; [7]", "value": 101.47},
      {"measurement": "Result Difference 24 h Urine protein, V5 (6 month) vs baseline V2", "setting": "[2]; [7]", "value": 254.2},
      {"measurement": "patients with reduced proteinuria", "setting": "[2]; lisinopril alone 5 mg twice daily, at the end of 1 month", "value": 42, "unit": "%"},
      {"measurement": "patients with reduced proteinuria", "setting": "[2]; lisinopril alone 5 mg twice daily, at the end of 3 month", "value": 40, "unit": "%"},
      {"measurement": "patients with reduced proteinuria", "setting": "[2]; lisinopril alone 5 mg twice daily, at the end of 6 month", "value": 50, "unit": "%"},
      {"measurement": "Mean GFR, 1 month after treatment at V3", "setting": "[3]; [6]", "value": 79.16, "unit": "mL/min"},
      {"measurement": "Mean GFR, 3 month after treatment at V4", "setting": "[3]; [6]", "value": 89.55, "unit": "mL/min"},
      {"measurement": "Mean GFR, 6 month after treatment at V5", "setting": "[3]; [6]", "value": 105.9, "unit": "mL/min"},
      {"measurement": "Result Difference GFR, V3 (1 month) vs baseline V2", "setting": "[3]; [6]", "value": -0.09, "unit": "mL/min"},
      {"measurement": "Result Difference GFR, V4 (3 month) vs baseline V2", "setting": "[3]; [6]", "value": 7.95, "unit": "mL/min"},
      {"measurement": "Result Difference GFR, V5 (6 month) vs baseline V2", "setting": "[3]; [6]", "value": 28.5, "unit": "mL/min"},
      {"measurement": "Mean GFR, 1 month after treatment at V3", "setting": "[3]; [7]", "value": 63.97, "unit": "mL/min"},
      {"measurement": "Mean GFR, 3 month after treatment at V4", "setting": "[3]; [7]", "value": 68.76, "unit": "mL/min"},
      {"measurement": "Mean GFR, 6 month after treatment at V5", "setting": "[3]; [7]", "value": 76.4, "unit": "mL/min"},
      {"measurement": "Result Difference GFR, V3 (1 month) vs baseline V2", "setting": "[3]; [7]", "value": 1.91, "unit": "mL/min"},
      {"measurement": "Result Difference GFR, V4 (3 month) vs baseline V2", "setting": "[3]; [7]", "value": 0.13, "unit": "mL/min"},
      {"measurement": "Result Difference GFR, V5 (6 month) vs baseline V2", "setting": "[3]; [7]", "value": -9.4, "unit": "mL/min"}
    ]},
    {"smiles": "COc1c(C)c2c(c(O)c1C/C=C(\\C)CCC(=O)OCCN1CCOCC1)C(=O)OC2", "note": "[MMF, mycophenolate mofetil]", "values": [
      {"measurement": "Mean 24 h Urine protein, 1 month after treatment at V3", "setting": "[2]; [8]", "value": 112.73},
      {"measurement": "Result Difference 24 h Urine protein, V3 (1 month) vs baseline V2", "setting": "[2]; [8]", "value": "−203.93"},
      {"measurement": "Mean 24 h Urine protein, 3 month after treatment at V4", "setting": "[2]; [9]", "value": 260.8},
      {"measurement": "Result Difference 24 h Urine protein, V4 (3 month) vs baseline V2", "setting": "[2]; [9]", "value": "−136.6"},
      {"measurement": "patients with reduced proteinuria", "setting": "[2]; MMF alone 500 mg twice daily, at V4 at the end of 3 months", "value": 67, "unit": "%"},
      {"measurement": "patients with reduced proteinuria", "setting": "[2]; MMF alone, after 1 month of treatment (V3 vs V2)", "value": 67, "unit": "%"},
      {"measurement": "Mean 24 h Urine protein, 1 month after treatment at V3", "setting": "[2]; [10]", "value": 696.3},
      {"measurement": "Result Difference 24 h Urine protein, V3 (1 month) vs baseline V2", "setting": "[2]; [10]", "value": 361.7},
      {"measurement": "Mean 24 h Urine protein, 3 month after treatment at V4", "setting": "[2]; [11]", "value": 305.5},
      {"measurement": "Mean GFR, 1 month after treatment at V3", "setting": "[3]; [8]", "value": 89.3, "unit": "mL/min"},
      {"measurement": "Result Difference GFR, V3 (1 month) vs baseline V2", "setting": "[3]; [8]", "value": 0.27, "unit": "mL/min"},
      {"measurement": "Mean GFR, 3 month after treatment at V4", "setting": "[3]; [9]", "value": 81.85, "unit": "mL/min"},
      {"measurement": "Result Difference GFR, V4 (3 month) vs baseline V2", "setting": "[3]; [9]", "value": -1.35, "unit": "mL/min"},
      {"measurement": "Mean GFR, 1 month after treatment at V3", "setting": "[3]; [10]", "value": 75.26, "unit": "mL/min"},
      {"measurement": "Result Difference GFR, V3 (1 month) vs baseline V2", "setting": "[3]; [10]", "value": 4.40, "unit": "mL/min"},
      {"measurement": "Mean GFR, 3 month after treatment at V4", "setting": "[3]; [11]", "value": 49.9, "unit": "mL/min"},
      {"measurement": "decreasing proteinuria, protecting renal function and decreasing blood lipid levels", "setting": "[4]", "value": "superior to Prednisone"},
      {"measurement": "albuminuria, glomerular macrophage infiltration and glomerulosclerosis", "setting": "Diabetic rats", "value": "did prevent"},
      {"measurement": "effect on blood pressure, glomerular dynamics or blood glucose levels", "setting": "Diabetic rats", "value": "no effect"},
      {"measurement": "tolerability", "setting": "[5]", "value": "well tolerated"}
    ]}
  ]
}
